30 compounds from patent US20240150293A1, “SPIROCYCLOHEXANE DERIVATIVES, PHARMACEUTICAL COMPOSITIONS CONTAINING THEM AND THEIR USES AS ANTI-APOPTOTIC INHIBITORS” (LES LABORATOIRES SERVIER, priority 2021, published 2024) can be followed below.

Where two headings read alike, the source gives them in different places.

In assay [1] the target is Cy5-labelled Mcl1 (amino acids 171-321) C286S protein (UniProtKB Q07820) (Homo sapiens (Human), UniProt Q07820, C286S). Nature of the assay: Inhibition of Mcl-1 by the fluorescence quenching assay (Example A, Method B). Format: binding. In a few lines:
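Eleven-point compound series incubated 2 h at room temperature with 1 nM Cy5-tagged protein and quencher-labelled PUMA peptide at 10, 20 or 400 nM in HEPES/NaCl/Tween 20, pH 7.4, 5% DMSO. IC50 for 50% fluorescence increase by 4-parameter fit, then Ki derived (complete cKi or estimated eKi).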

Assay [2] deals with H929 multiple myeloma tumor line. The assay is described as follows: In vitro cytotoxicity, MTT assay (Example B, Method A). Particulars: H929 cells, 48 hours exposure, read-out: C50. Format: cell-based. How it is done:
The cytotoxicity studies were carried out on the H929 multiple myeloma tumor line.
The cells are distributed onto microplates and exposed to the test compounds for 48 hours. The cell viability is then quantified by a colorimetric assay, the Microculture Tetrazolium Assay (Carmichael et al, Cancer Res. 1987, 47, 939-942).
The results are expressed in C50 which means concentration corresponding to […] of effect/inhibition.
(Tetrazolium assays rely on reduction of a dye to a coloured formazan, in cell work by metabolically active cells.)

Cy5-labelled Mcl1 (amino acids 171-321) C286S protein, sequence (Q07820 171-321 C286S): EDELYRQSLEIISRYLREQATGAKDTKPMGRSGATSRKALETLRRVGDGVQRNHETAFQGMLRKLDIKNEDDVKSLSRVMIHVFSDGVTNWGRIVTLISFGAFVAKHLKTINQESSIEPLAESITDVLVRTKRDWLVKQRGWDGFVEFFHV

As a reminder, the Ki is a dissociation constant, usually derived from enzyme kinetics or from competition with a known ligand. On to `C[C@@H](COc1ccnc2c1[C@H]1CCC[C@H]1C2)C[C@H]1Cc2ccccc2[C@]12CC[C@@](Nc1cccc(Cl)c1)(C(=O)O)CC2` (single isomer, unassigned) [Example 621, (1r,2′S,4S)-4-(3-chloroanilino)-2′-[(2R)-3-{[(4bR*,7aR*)-4b,5,6,7,7a,8-hexahydropentaleno[2,1-b]pyridin-4-yl]oxy}-2-methylpropyl]-2′,3′-dihydrospiro[cyclohexane-1,1′-indene]-4-carboxylic acid], for which, in assay [1], the inhibition constant Ki is 37.6 nM. Also, the IC50 in assay [2] is 2520 nM.
As to `CC(C)(COc1ccnc2sccc12)CC1Cc2ccccc2C12CCC(Nc1cccc(Cl)c1)(C(=O)O)CC2` (single isomer, unassigned) [Example 622, (1r,4r)-4-(3-chloroanilino)-2′-{2,2-dimethyl-3-[(thieno[2,3-b]pyridin-4-yl)oxy]propyl}-2′,3′-dihydrospiro[cyclohexane-1,1′-indene]-4-carboxylic acid], the Ki in assay [1] is 44.6 nM. Besides, the IC50 in assay [2] (Homo sapiens, NCI-H929, 48 h) is 17100 nM.
With `CC(C)(COc1ccnc2sccc12)CC1Cc2ccccc2C12CCC(Nc1cccc(Cl)c1)(C(=O)O)CC2` (single isomer, unassigned) [Example 623, (1r,4r)-4-(3-chloroanilino)-2′-{2,2-dimethyl-3-[(thieno[2,3-b]pyridin-4-yl)oxy]propyl}-2′,3′-dihydrospiro[cyclohexane-1,1′-indene]-4-carboxylic acid], the Ki in assay [1] was determined as 2320 nM. The IC50 in assay [2] was 30000 nM.
Turning to `CC1CCc2nccc(OC[C@H](C)CC3=Cc4ccccc4[C@]34CC[C@@](Nc3cccc(Cl)c3)(C(=O)O)CC4)c21` (single isomer, unassigned) [Example 629], the Ki in assay [1] was determined as 9.55 nM. In addition, the IC50 in assay [2] was determined as 880 nM.
In the case of `CC1CCc2nccc(OC[C@H](C)CC3=Cc4ccccc4[C@]34CC[C@@](Nc3cccc(Cl)c3)(C(=O)O)CC4)c21` (single isomer, unassigned) [Example 630], the inhibition constant Ki in assay [1] was found to be 1.17 nM. In addition, in assay [2], the IC50 stood at 340 nM.
In the case of `Cc1cn(C[C@H](C)C[C@H]2Cc3ccccc3[C@]23CC[C@@](Nc2cccc(Cl)c2)(C(=O)O)CC3)c2c(c1=O)C(C)CCC2` (single isomer, unassigned) [Example 639], in assay [1], the Ki came to 37.2 nM. The IC50 in assay [2] (Homo sapiens, NCI-H929, 48 h) was determined as 12600 nM.
Regarding `Cc1cn(C[C@H](C)C[C@H]2Cc3ccccc3[C@]23CC[C@@](Nc2cccc(Cl)c2)(C(=O)O)CC3)c2c(c1=O)C(C)CCC2` (single isomer, unassigned) [Example 640], the Ki in assay [1] was found to be 980 nM. In assay [2], the IC50 worked out at 18100 nM.
Take `CC1CCN(C)c2nccc(OC[C@H](C)C[C@H]3Cc4ccccc4[C@]34CC[C@@](Nc3cccc(Cl)c3)(C(=O)O)CC4)c21` (single isomer, unassigned) [Example 643]: in assay [1], the inhibition constant Ki stood at 26.8 nM. Also, the IC50 in assay [2] (Homo sapiens, NCI-H929, 48 h) came out at 1230 nM.
The corresponding values for `C[C@@H](COc1ccnc2c1[C@@H](C)CC[C@H]2C)C[C@H]1Cc2ccccc2[C@]12CC[C@@](Nc1cccc(Cl)c1)(C(=O)O)CC2` (single isomer, unassigned) [Example 658, (1r,2′S,4S)-4-(3-chloroanilino)-2′-[(2R)-3-{[(5R*,8S*)-5,8-dimethyl-5,6,7,8-tetrahydroquinolin-4-yl]oxy}-2-methylpropyl]-2′,3′-dihydrospiro[cyclohexane-1,1′-indene]-4-carboxylic acid] are 34.2 nM and 879 nM.
On to `C[C@@H](COc1ccnc2c1[C@@H](C)CC[C@H]2C)C[C@H]1Cc2ccccc2[C@]12CC[C@@](Nc1cccc(Cl)c1)(C(=O)O)CC2` (single isomer, unassigned) [Example 659, (1r,2′S,4S)-4-(3-chloroanilino)-2′-[(2R)-3-{[(5R*,8S*)-5,8-dimethyl-5,6,7,8-tetrahydroquinolin-4-yl]oxy}-2-methylpropyl]-2′,3′-dihydrospiro[cyclohexane-1,1′-indene]-4-carboxylic acid], for which, in assay [1], the Ki turned out to be 5.73 nM. Besides, the IC50 in assay [2] worked out at 559 nM.
The corresponding values for `Cc1cc(OC[C@H](C)C[C@H]2Cc3ccccc3[C@]23CC[C@@](Nc2cccc(Cl)c2)(C(=O)O)CC3)c2c(n1)CCCC2C` (single isomer, unassigned) [Example 662] are 68.7 nM and 9060 nM.
Take `Cc1cc(OC[C@H](C)C[C@H]2Cc3ccccc3[C@]23CC[C@@](Nc2cccc(Cl)c2)(C(=O)O)CC3)c2c(n1)CCCC2C` (single isomer, unassigned) [Example 663]: the Ki in assay [1] stood at 23.1 nM. Also, the IC50 in assay [2] was 3430 nM.
On to `C[C@@H](COc1ccnc2c1CCCC2C(F)F)C[C@H]1Cc2ccccc2[C@]12CC[C@@](Nc1cccc(Cl)c1)(C(=O)O)CC2` (single isomer, unassigned) [Example 682], for which the Ki in assay [1] worked out at 46.6 nM. Further, the IC50 in assay [2] (Homo sapiens, NCI-H929, 48 h) was determined as 5180 nM.
Consider `C[C@@H](COc1ccnc2c1CCCC2C(F)F)C[C@H]1Cc2ccccc2[C@]12CC[C@@](Nc1cccc(Cl)c1)(C(=O)O)CC2` (single isomer, unassigned) [Example 683], for which the Ki in assay [1] turned out to be 106 nM. The IC50 in assay [2] came to 9850 nM.
The corresponding values for `C[C@@H](COc1ccnc2c1C(F)CCC2)C[C@H]1Cc2ccccc2[C@]12CC[C@@](Nc1cccc(Cl)c1)(C(=O)O)CC2` (single isomer, unassigned) [Example 685] are 5.8 nM and 1460 nM.
For `C[C@@H](COc1ccnc2c1C(F)CCC2)C[C@H]1Cc2ccccc2[C@]12CC[C@@](Nc1cccc(Cl)c1)(C(=O)O)CC2` (single isomer, unassigned) [Example 686] the same measures were 1.85 nM and 442 nM.
For `C[C@@H](COc1ccnc2c1[C@H](C)CCC2)CC1Cc2c(Cl)cccc2[C@]12CC[C@@](Nc1cccc(Cl)c1)(C(=O)O)CC2` (single isomer, unassigned) [Example 740] the same measures were 0.827 nM and 45.9 nM.
For `C[C@@H](COc1ccnc2c1[C@H](C)CCC2)CC1Cc2c(Cl)cccc2[C@]12CC[C@@](Nc1cccc(Cl)c1)(C(=O)O)CC2` (single isomer, unassigned) [Example 741], the Ki in assay [1] turned out to be 1.58 nM. Further, the IC50 in assay [2] worked out at 132 nM.
Regarding `C[C@@H](COc1ccnc2c1[C@H](C)CCC2)CC1Cc2c(F)cccc2[C@]12CC[C@@](Nc1cccc(Cl)c1)(C(=O)O)CC2` (single isomer, unassigned) [Example 742], in assay [1], the inhibition constant (Ki) was 1.23 nM. Besides, the IC50 in assay [2] (Homo sapiens, NCI-H929, 48 h) stood at 59.6 nM.
Regarding `C[C@@H](COc1ccnc2c1[C@H](C)CCC2)CC1Cc2c(F)cccc2[C@]12CC[C@@](Nc1cccc(Cl)c1)(C(=O)O)CC2` (single isomer, unassigned) [Example 743], the Ki in assay [1] came to 0.463 nM. In addition, in assay [2], the IC50 came to 110 nM.
The corresponding values for `C[C@@H](COc1ccnc2c1[C@H](C)CCC2)CC1Cc2c(Cl)c(F)ccc2[C@]12CC[C@@](Nc1cccc(Cl)c1)(C(=O)O)CC2` (single isomer, unassigned) [Example 746] are 0.356 nM and 25.4 nM.
For `C[C@@H](COc1ccnc2c1[C@H](C)CCC2)CC1Cc2c(Cl)c(F)ccc2[C@]12CC[C@@](Nc1cccc(Cl)c1)(C(=O)O)CC2` (single isomer, unassigned) [Example 747] the same measures were 0.788 nM and 118 nM.
Turning to `C[C@@H](COc1ccnc2c1[C@H](C)CCC2)CC1Cc2c(F)c(Cl)ccc2[C@]12CC[C@@](Nc1cccc(Cl)c1)(C(=O)O)CC2` (single isomer, unassigned) [Example 748], in assay [1], the inhibitory constant (Ki) was determined as 1.5 nM. Moreover, in assay [2] (Homo sapiens, NCI-H929, 48 h), the IC50 came out at 138 nM.
In the case of `C[C@@H](COc1ccnc2c1[C@H](C)CCC2)CC1Cc2c(F)c(Cl)ccc2[C@]12CC[C@@](Nc1cccc(Cl)c1)(C(=O)O)CC2` (single isomer, unassigned) [Example 749], the Ki in assay [1] is 0.321 nM. In addition, the IC50 in assay [2] was found to be 72.4 nM.
As to `Cc1cccc2c1CC(C[C@@H](C)COc1ccnc3c1[C@H](C)CCC3)[C@]21CC[C@](Nc2cccc(Cl)c2)(C(=O)O)CC1` (single isomer, unassigned) [Example 754], the Ki in assay [1] was determined as 1.23 nM. In addition, the IC50 in assay [2] (Homo sapiens, NCI-H929, 48 h) was determined as 96.6 nM.
Regarding `Cc1cccc2c1CC(C[C@@H](C)COc1ccnc3c1[C@H](C)CCC3)[C@]21CC[C@](Nc2cccc(Cl)c2)(C(=O)O)CC1` (single isomer, unassigned) [Example 755], the Ki in assay [1] came to 0.94 nM. Also, the IC50 in assay [2] is 58.4 nM.
As for `Cc1cc(C(C)O)cc2c1C=C(C[C@@H](C)COc1ccnc3c1[C@H](C)CCC3)[C@]21CC[C@](Nc2cccc(Cl)c2)(C(=O)O)CC1` (single isomer, unassigned) [Example 759], the inhibition constant Ki in assay [1] worked out at 0.303 nM. The IC50 in assay [2] is 185 nM.
For `Cc1cc(C(C)O)cc2c1C=C(C[C@@H](C)COc1ccnc3c1[C@H](C)CCC3)[C@]21CC[C@](Nc2cccc(Cl)c2)(C(=O)O)CC1` (single isomer, unassigned) [Example 760] the same measures were 0.198 nM and 81.7 nM.
As to `CC(O)c1ccc2c(c1)[C@]1(CC[C@@](Nc3cccc(Cl)c3)(C(=O)O)CC1)[C@@H](C[C@@H](C)COc1ccnc3c1[C@H](C)CC[C@H]3O)C2` (single isomer, unassigned) [Example 861], the Ki in assay [1] turned out to be 0.0909 nM. For the same compound, the IC50 in assay [2] (Homo sapiens, NCI-H929, 48 h) was 56.3 nM.
Regarding `CC(O)c1ccc2c(c1)[C@]1(CC[C@@](Nc3cccc(Cl)c3)(C(=O)O)CC1)[C@@H](C[C@@H](C)COc1ccnc3c1[C@H](C)CC[C@H]3O)C2` (single isomer, unassigned) [Example 862], the Ki in assay [1] is 0.113 nM. Moreover, the IC50 in assay [2] turned out to be 73.8 nM.
